These results are taken from patent publication US5663162A, “Cephem derivatives” (priority 1993, dated 1997).

≈ marks a conversion by molar mass, not a printed value. Like-named read-outs stand apart in the source and are kept apart here. Bounds are passed on as bounds.

Holding throughout (test): Antibacterial activity test, MIC by two-fold dilution method
Test [1] has as its system S. marcescens No. 1. The test is classed as cell-based. As to conditions: Serratia marcescens. Here is the method:
(§1) The measurement was carried out in the following manner: 10^6 CFU/ml of a bacterium to be tested was inoculated on a Medium N for disc susceptibility test (manufactured by Nissui Pharmaceutical Co., Ltd.), and cultivated at 35° C. for 18 to 20 hours.

Test [2] concerns M. morganii 1510/S-1. The test is classed as cell-based. As to conditions: Morganella morganii. Here is the method: as §1
In test [3] the test system is C. freundii GN346/16. The test is classed as cell-based. As to conditions: Citrobacter freundii. Here is the method:
as §1

For test [4], the system named is P. vulgaris GN76. The test is classed as cell-based. As to conditions: Proteus vulgaris. How it is done:
as §1

Test [5] relates to E. coli NIHJ JC-2. The test is classed as cell-based. As to conditions: Escherichia coli. How it is done: as §1
The test system of test [6] is P. aeruginosa GN10362. In kind it is cell-based. As to conditions: Pseudomonas aeruginosa. Here is the method: as §1
The test system of test [7] is S. epidermidis ATCC14990. In kind it is cell-based. As to conditions: Staphylococcus epidermidis. Here is the method:
as §1

Test [8] has as its system E. cloacae G-0008. In kind it is cell-based. As to conditions: Enterobacter cloacae. How it is done:
as §1

Test [9] has as its system P. aeruginosa E-2. The test is classed as cell-based. As to conditions: Pseudomonas aeruginosa. How it is done:
as §1

For test [10], the system named is S. Aureus 209P JC-1. In kind it is cell-based. As to conditions: Staphylococcus aureus, read-out: Minimum Inhibition Concentration. How it is done:
as §1

Test [11] relates to K. pneumoniae PC1602. The test is classed as cell-based. As to conditions: Klebsiella pneumoniae. How it is done:
as §1

The test system of test [12] is S. Aureus 126. In kind it is cell-based, Staphylococcus aureus (methicillin-resistant, MRSA). As to conditions: Staphylococcus aureus, read-out: Minimum Inhibition Concentration. Here is the method: as §1
In test [13] the test system is S. Aureus 133. In kind it is cell-based, Staphylococcus aureus (methicillin-resistant, MRSA). As to conditions: Staphylococcus aureus, read-out: Minimum Inhibition Concentration. How it is done: as §1
Setting [14] is: S. marcescens No. 1, 10^6 CFU/ml, 35° C., 18 to 20 hours, read-out: Minimum Inhibition Concentration.
The mark [15] stands for this setting: 1510/S1, M. morganii 1510/S-1, 10^6 CFU/ml, 35° C., 18 to 20 hours, read-out: Minimum Inhibition Concentration.
The mark [16] stands for this setting: C. freundii GN346/16, 10^6 CFU/ml, 35° C., 18 to 20 hours, read-out: Minimum Inhibition Concentration.
Setting [17] is: P. vulgaris GN76, 10^6 CFU/ml, 35° C., 18 to 20 hours, read-out: Minimum Inhibition Concentration.
[18] abbreviates: NIHJJC2, E. coli NIHJ JC-2, 10^6 CFU/ml, 35° C., 18 to 20 hours, read-out: Minimum Inhibition Concentration.
Setting [19] is: P. aeruginosa GN10362, 10^6 CFU/ml, 35° C., 18 to 20 hours, read-out: Minimum Inhibition Concentration.
Where [20] appears, read: S. epidermidis ATCC14990, 10^6 CFU/ml, 35° C., 18 to 20 hours, read-out: Minimum Inhibition Concentration.
[21] abbreviates: G0008, E. cloacae G-0008, 10^6 CFU/ml, 35° C., 18 to 20 hours, read-out: Minimum Inhibition Concentration.
[22] abbreviates: E2, P. aeruginosa E-2, 10^6 CFU/ml, 35° C., 18 to 20 hours, read-out: Minimum Inhibition Concentration.
[23] abbreviates: S. Aureus 209P JC-1, 10^6 CFU/ml, 35° C., 18 to 20 hours.
[24] abbreviates: K. pneumoniae PC1602, 10^6 CFU/ml, 35° C., 18 to 20 hours, read-out: Minimum Inhibition Concentration.
The mark [25] stands for this setting: ATCC14990, read-out: Minimum Inhibition Concentration.
Where [26] appears, read: S. Aureus 126 (MRSA), 10^6 CFU/ml, 35° C., 18 to 20 hours.
The mark [27] stands for this setting: GN76, read-out: Minimum Inhibition Concentration.

In the case of `Nc1nc(/C(=N/OCF)C(=O)N[C@@H]2C(=O)N3C(C(=O)[O-])=C(C[n+]4cc5sccn5c4[C@H](CO)NC=O)CS[C@H]23)ns1` [Example 164, (6R,7R)-7-[(Z)-2-(5-amino-1,2,4-thiadiazol-3-yl)-2-fluoromethoxyiminoacetamido]-3-[5-((R)-1-formylamino-2-hydroxyethyl]imidazo[5,1-b]thiazolium-6-yl)methyl-3-cephem-4-carboxylate], the MIC is no more than 0.025 µg/mL in [1] (setting [14]); no more than 0.025 µg/mL in [2] (setting [15]); no more than 0.025 µg/mL in test [3] (setting [16]); 0.2 µg/mL (≈ 0.32 µM) in test [4] (setting [17]); no more than 0.025 µg/mL in [5] (setting [18]); 0.78 µg/mL (≈ 1.25 µM) in test [6] (setting [19]). In addition, the MIC in [7] (setting [20]) is 0.78 µg/mL (≈ 1.25 µM); in test [8] (setting [21]), 0.05 µg/mL (≈ 0.0799 µM); in test [9] (setting [22]), 0.78 µg/mL (≈ 1.25 µM); in test [10] (setting [23]) it was 0.78 µg/mL (≈ 1.25 µM); in test [11] (setting [24]) it was no more than 0.025 µg/mL; in test [12] (MRSA), 6.25 µg/mL (≈ 9.99 µM). Further, the MIC in test [13] (MRSA) is 6.25 µg/mL (≈ 9.99 µM).
With `CO/N=C(\C(=O)N[C@@H]1C(=O)N2C(C(=O)[O-])=C(C[n+]3cccc4c3CCC4)CS[C@H]12)c1csc(N)n1` [CPR, Cefpirome, reference compound], the MIC in test [1] (setting [14]) was no more than 0.025 µg/mL; in test [2] (setting [15]), no more than 0.025 µg/mL; in test [3] (setting [16]) it was 0.05 µg/mL (≈ 0.0972 µM); in [4] (setting [17]), 0.2 µg/mL (≈ 0.389 µM); in [5] (setting [18]) it was 0.05 µg/mL (≈ 0.0972 µM); in [6] (setting [19]) it was 3.13 µg/mL (≈ 6.08 µM). Moreover, the MIC in test [7] (setting [25]) was determined as 0.39 µg/mL (≈ 0.758 µM); in test [8] (setting [21]), 0.05 µg/mL (≈ 0.0972 µM); in test [9] (setting [22]), 3.13 µg/mL (≈ 6.08 µM); in test [10] (setting [23]), 0.2 µg/mL (≈ 0.389 µM); in test [11] (setting [24]), 0.05 µg/mL (≈ 0.0972 µM); in test [12] (setting [26]) it was 50 µg/mL (≈ 97.2 µM). Also, the MIC in [13] (MRSA) was found to be 6.25 µg/mL (≈ 12.1 µM).
With `CC(C)(O/N=C(\C(=O)N[C@@H]1C(=O)N2C(C(=O)[O-])=C(C[n+]3ccccc3)CS[C@H]12)c1csc(N)n1)C(=O)O` [CAZ, Ceftazidime, reference compound], the MIC in test [1] (NO.1, read-out: Minimum Inhibition Concentration) is 0.05 µg/mL (≈ 0.0915 µM); in test [2] (1510/S1, read-out: Minimum Inhibition Concentration), 0.2 µg/mL (≈ 0.366 µM); in test [3] (GN346, read-out: Minimum Inhibition Concentration), 0.39 µg/mL (≈ 0.714 µM); in test [4] (setting [27]) it was 0.05 µg/mL (≈ 0.0915 µM); in test [5] (NIHJJC2, read-out: Minimum Inhibition Concentration) it was 0.39 µg/mL (≈ 0.714 µM); in test [6] (GN10362, read-out: Minimum Inhibition Concentration) it was 1.56 µg/mL (≈ 2.85 µM). Besides, the MIC in test [7] (setting [25]) was 6.25 µg/mL (≈ 11.4 µM); in [8] (G0008, read-out: Minimum Inhibition Concentration), 0.2 µg/mL (≈ 0.366 µM); in [9] (E2, read-out: Minimum Inhibition Concentration) it was 1.56 µg/mL (≈ 2.85 µM); in test [10] (209P) it was 6.25 µg/mL (≈ 11.4 µM); in test [11] (PC1602, read-out: Minimum Inhibition Concentration), 0.1 µg/mL (≈ 0.183 µM); in [12] (setting [26]), greater than 100 µg/mL. Besides, the MIC in test [13] (S. Aureus 133 (MRSA), 10^6 CFU/ml, 35° C., 18 to 20 hours) is 100 µg/mL (≈ 183 µM).
With `CO/N=C(\C(=O)N[C@@H]1C(=O)N2C(C(=O)[O-])=C(C[n+]3cc4sccn4c3CO)CS[C@H]12)c1nsc(N)n1` [Example 31], the MIC was 0.05 µg/mL (≈ 0.0908 µM) in test [1] (setting [14]); 0.05 µg/mL (≈ 0.0908 µM) in [2] (setting [15]); 0.1 µg/mL (≈ 0.182 µM) in [3] (setting [16]); 0.39 µg/mL (≈ 0.708 µM) in test [4] (setting [27]); no more than 0.025 µg/mL in [5] (setting [18]); 3.13 µg/mL (≈ 5.68 µM) in test [6] (setting [19]). Further, the MIC in test [7] (setting [20]) was determined as 0.78 µg/mL (≈ 1.42 µM); in test [8] (setting [21]) it was 0.05 µg/mL (≈ 0.0908 µM); in test [9] (setting [22]) it was 3.13 µg/mL (≈ 5.68 µM); in test [10] (setting [23]), 0.78 µg/mL (≈ 1.42 µM); in [11] (setting [24]), 0.05 µg/mL (≈ 0.0908 µM); in test [12] (setting [26]), 12.5 µg/mL (≈ 22.7 µM). Moreover, in [13] (MRSA), the MIC came to 6.25 µg/mL (≈ 11.4 µM).
